Consider 18 compounds from patent EP1674457B1, “Derivatives of squaric acid with anti-proliferative activity” (GPC Biotech AG, priority 2004, dated 2006).

Assay [1] has as its system A2780. The assay can be described thus: SRB assay, inhibition of tumor cell growth at 1 µM (Example 61). The conditions noted are these: 48 hours; for inhibition at 1 µM: Homo sapiens. The class given is cell-based, Human. Here is the method:
(§1) 3,000-15,000 cells/well were exposed to the test compounds at a concentration of 1 µM for 48 hours, and cytotoxicty was measured using the SRB assay according to Shekan et al (J Natl Cancer Inst (1990) 82, 1107-112). Briefly, cells were plated in 96 well dishes 24 hours prior to compound addition. The assay was terminated with the addition of cold TCA to a final concentration of 10% and the plates were incubated for one hour at 4°C. The plates were then washed 5 times with water and 100µl of a Sulforhodamine B solution (4%) was added to each well. The plate was then incubated for 10 minutes at room temperature before removal of unbound dye by washing with 1% acetic acid. The bound dye was solubilized with 10 mM Trizma base and the absorbance read at OD570. Inhibitory activity of the compounds was calculated as % inhibition compared to cells treated with the solvent (DMSO). Table 2 represents the growth inhibitory activity of certain compunds of the invention across a number of tumor cell lines.

Assay [2] has as its system HCT-116. The description is as above. The class given is cell-based. The conditions noted are these: 48 hours; for inhibition at 1 µM: Homo sapiens. Here is the method: as §1
Assay [3] concerns MCF7. The description is as above. The class given is cell-based. The conditions noted are these: 48 hours; for inhibition at 1 µM: Homo sapiens. Here is the method:
as §1

For another assay, the system named is PC-3. The assay is described as above. It counts as cell-based. The conditions noted are these: 48 hours; for inhibition at 1 µM: Homo sapiens. Here is the method: as §1
The test system of assay [4] is SW-620. The assay is described as above. It counts as cell-based. The conditions noted are these: 48 hours; for inhibition at 1 µM: Homo sapiens. Here is the method:
as §1

Assay [5] deals with HCT-116. The assay can be described thus: IC50 determination by SRB assay (Example 62). It counts as cell-based. The conditions noted are these: HCY-116. Here is the method:
as §1
(§2) The assay was performed similar to example 61. However, test compounds were added at various concentrations, such as from 0.001 to about 0.1 µM, from 0.1 to about 10 µM, or from 1 to about 10 µM, as the need may be, in order to estimate the IC50 values. IC50 values were determined by plotting the percentage inhibitory activity for each concentration, fitting a curve using appropriate software and estimating the concentration at which 50% inhibition of growth would occur.

The subject of assay [6] is MCF7. The assay can be described thus: IC50 determination by SRB assay (Example 62). The class given is cell-based. Here is the method: as §1, §2
Assay [7] deals with SW-620. The assay can be described thus: IC50 determination by SRB assay (Example 62). The class given is cell-based. Here is the method: as §1, §2
In general terms: Sulforhodamine B stains cellular protein and so reports cell mass.

The next assay relates to A-549. The assay can be described thus: SRB assay, inhibition of tumor cell growth at 1 µM (Example 61). The conditions noted are these: for % Inhibition (1 µM): 48 hours; for inhibition at 1 µM: Homo sapiens, A549, 48 hours. It counts as cell-based. Here is the method: as §1
The subject of assay [8] is A2780. The assay can be described thus: IC50 determination by SRB assay (Example 62). The class given is cell-based. Conditions: Homo sapiens. Here is the method:
as §1, §2

Like-named read-outs stand apart in the source and are kept apart here. Where only a bound is given, the exact number is not on record here.

For the compound “3-[2-(4-Phenoxyphenyl)-ethylamino]-4-(pyridin-3-yl-amino)-cyclobut-3-ene-1,2-dione [SQ-5]”, the “% Inhibition (1 µM)” value with A2780 [1] was more than 80%; with HCT-116 [2] it was more than 80%; in the assay on MCF7 [3], more than 50%; in the assay on PC-3, more than 50%; in the assay with SW-620 [4], 0%. Besides, the values for the IC50 with HCT-116 [5], with MCF7 [6] and with SW-620 [7] were less than 100 nM, less than 10000 nM and less than 2000 nM, respectively.
For “3-[4-Phenoxybenzylamino]-4-(pyridin-4-yl-amino)-cyclobut-3-ene-1,2-dione [SQ-34]”, the “% Inhibition (1 µM)” value was more than 20% in the assay on A2780 [1]; 0% in the assay with A-549; more than 20% with HCT-116 [2]; more than 0% in the assay with PC-3; 0% with SW-620 [4].
In the case of “3-[6-(3,4-Dichlorophenoxy)-hexylamino)]-4-(pyridin-4yl-amino)-3-cyclobutene-1,2-dione [SQ-15]”, the “% Inhibition (1 µM)” value in the assay on A2780 [1] is more than 80%; with A-549, more than 20%; with HCT-116 [2], more than 80%; in the assay on MCF7 [3], more than 20%; in the assay with PC-3, more than 50%; in the assay with SW-620 [4], more than 20%. Further, the IC50 (commonly the point on the concentration scale where inhibition reaches its midpoint) is less than 100 nM with HCT-116 [5] and less than 500 nM in the assay on SW-620 [7].
As for `O=c1c(NCCCCCCOc2ccc(Cl)cc2)c(Nc2ccncc2)c1=O` [SQ-7B], the inhibition (commonly the drop in the measured response relative to a control, in per cent) at 1 µM is more than 80% in the assay on A2780 [1], more than 80% in the assay with HCT-116 [2], more than 50% in the assay on PC-3 and more than 50% in the assay with SW-620 [4]. Moreover, the IC50 with A2780 [8] was less than 100 nM; in the assay on HCT-116 [5] (Homo sapiens, HCT-116), less than 100 nM; in the assay with MCF7 [6] (Homo sapiens) it was less than 100 nM.
Turning to `O=c1c(NCCCCCOc2ccc(Cl)cc2)c(Nc2ccncc2)c1=O` [SQ-8], the inhibition at 1 µM was more than 80% in the assay with A2780 [1]; more than 5% in the assay on A-549; more than 80% with HCT-116 [2]; more than 80% with MCF7 [3]; more than 50% in the assay on PC-3; more than 20% in the assay with SW-620 [4]. The IC50 in the assay with HCT-116 [5] (Homo sapiens, HCT-116) was less than 100 nM; in the assay with MCF7 [6] (Homo sapiens), less than 100 nM; in the assay with SW-620 [7] (Homo sapiens), less than 2000 nM.
As for `O=c1c(NCCCCCCCCOc2ccc(Cl)cc2)c(Nc2ccncc2)c1=O` [SQ-9], the inhibition at 1 µM in the assay on A2780 [1] is more than 80%; in the assay with A-549, more than 5%; in the assay on HCT-116 [2], more than 80%; with MCF7 [3], more than 80%; in the assay with PC-3, more than 50%; in the assay on SW-620 [4], more than 50%. Moreover, the IC50 with MCF7 [6] (Homo sapiens) is less than 500 nM; in the assay on SW-620 [7] (Homo sapiens), less than 2000 nM.
With `O=c1c(NCCCCOc2ccc(Cl)cc2)c(Nc2ccncc2)c1=O` [SQ-10], the inhibition at 1 µM in the assay on A2780 [1] was more than 50%; with A-549 it was 0%; in the assay with HCT-116 [2], more than 50%; in the assay on MCF7 [3], more than 50%; in the assay on SW-620 [4], more than 20%. In addition, the half-maximal inhibitory concentration (IC50) in the assay on HCT-116 [5] (Homo sapiens, HCT-116) was less than 2000 nM; in the assay on MCF7 [6] (Homo sapiens) it was less than 2000 nM; in the assay with SW-620 [7] (Homo sapiens), less than 10000 nM.
For the compound `O=c1c(NCCCCCCCOc2ccc(Cl)cc2)c(Nc2ccncc2)c1=O` [SQ-11A], the inhibition at 1 µM in the assay on A2780 [1] was more than 80%; in the assay on A-549, more than 5%; with HCT-116 [2], more than 80%; in the assay on MCF7 [3], more than 80%; in the assay with PC-3 it was more than 20%; in the assay with SW-620 [4], more than 50%. In addition, the half-maximal inhibitory concentration (IC50) with HCT-116 [5] (Homo sapiens, HCT-116) was less than 100 nM; in the assay with MCF7 [6] (Homo sapiens) it was less than 100 nM; with SW-620 [7] (Homo sapiens) it was less than 2000 nM.
With `O=c1c(NCCCCCCCOc2ccccc2)c(Nc2ccncc2)c1=O` [SQ-11B, 3-(7-Phenoxyheptylamino)-4-(pyridin-4yl-amino)-3-cyclobutene-1,2-dione], the inhibition at 1 µM was more than 80% with A2780 [1]; more than 50% in the assay on A-549; more than 80% in the assay on HCT-116 [2]; more than 80% in the assay on MCF7 [3]; more than 50% in the assay with PC-3; more than 50% in the assay on SW-620 [4]. The IC50 with HCT-116 [5] (Homo sapiens, HCT-116) is less than 20 nM; with MCF7 [6] (Homo sapiens) it was less than 20 nM; in the assay with SW-620 [7] (Homo sapiens), less than 500 nM.
As to `Cc1ccc(OCCCCCCNc2c(Nc3ccncc3)c(=O)c2=O)cc1` [SQ-13], the inhibition at 1 µM is more than 80% in the assay on A2780 [1]; more than 20% with A-549; more than 80% with HCT-116 [2]; more than 5% with MCF7 [3]; more than 50% in the assay with PC-3; more than 20% in the assay with SW-620 [4]. The IC50 in the assay on HCT-116 [5] (Homo sapiens, HCT-116) is less than 100 nM; in the assay with SW-620 [7] (Homo sapiens), less than 2000 nM.
On to `COc1ccc(OCCCCCCNc2c(Nc3ccncc3)c(=O)c2=O)cc1` [SQ-14], for which the inhibition at 1 µM in the assay on A2780 [1] is more than 80%; in the assay on A-549 it was more than 20%; in the assay with HCT-116 [2], more than 80%; with MCF7 [3], more than 5%; with PC-3 it was more than 50%; in the assay with SW-620 [4], more than 20%. In addition, the IC50 was less than 100 nM in the assay on HCT-116 [5] (Homo sapiens, HCT-116) and less than 2000 nM with SW-620 [7] (Homo sapiens).
With `O=c1c(NCCc2ccc(Oc3ccccc3)cc2)c(Nc2ccncc2)c1=O` [SQ-17, 3-[2-(4-Phenoxyphenyl)-ethylamino]-4-(pyridin-4-yl-amino)-cyclobut-3-ene-1,2-dione], the inhibition at 1 µM in the assay with A2780 [1] is more than 80%; in the assay on A-549 it was more than 50%; in the assay with HCT-116 [2], more than 80%; in the assay with PC-3, more than 50%; with SW-620 [4], more than 20%. In addition, the IC50 with A2780 [8] is less than 100 nM; with HCT-116 [5] (Homo sapiens, HCT-116) it was less than 20 nM; in the assay with MCF7 [6] (Homo sapiens), less than 10000 nM; in the assay on SW-620 [7] (Homo sapiens), less than 500 nM.
Take `O=c1c(NCCCCCCOc2ccc(C(F)(F)F)cc2)c(Nc2ccncc2)c1=O` [SQ-18, 3-[6-(4-Trifluoromethylphenoxy)-hexylamino]-4-(pyridin-4-yl-amino)-cyclobut-3-ene-1,2-dione]: the inhibition at 1 µM is more than 80% with A2780 [1]; more than 20% with A-549; more than 80% in the assay on HCT-116 [2]; more than 50% in the assay with PC-3; more than 20% with SW-620 [4]. Besides, the IC50 in the assay with MCF7 [6] (Homo sapiens) was less than 10000 nM; in the assay with SW-620 [7] (Homo sapiens) it was less than 2000 nM.
As to `N#Cc1ccc(OCCCCCCNc2c(Nc3ccncc3)c(=O)c2=O)cc1` [SQ-19, 4-{6-[3,4-Dioxo-2-(pyridin-4-ylamino)-cyclobut-1-enylamino]-hexyloxy}-benzonitrile], the inhibition at 1 µM was more than 50% with A2780 [1]; more than 0% in the assay on A-549; more than 5% with HCT-116 [2]; more than 5% in the assay with PC-3; more than 5% with SW-620 [4].
Take `O=c1c(NCCCCCCNc2ccc(Cl)cc2)c(Nc2ccncc2)c1=O` [SQ-25, 3-[6-(4-Chlorophenylamino)-hexylamino]-4-(pyridin-4-yl-amino)-cyclobut-3-ene-1,2-dione]: the inhibition at 1 µM in the assay with A2780 [1] was more than 80%; in the assay on A-549, more than 20%; with HCT-116 [2], more than 80%; in the assay with MCF7 [3], more than 5%; in the assay with PC-3, more than 50%; in the assay on SW-620 [4], more than 20%. The IC50 in the assay on HCT-116 [5] (Homo sapiens, HCT-116) was less than 500 nM; with SW-620 [7] (Homo sapiens), less than 2000 nM.
With `O=c1c(NCCCCCCNc2ccc(Cl)cc2)c(Nc2cccnc2)c1=O` [SQ-26, 3-[6-(4-Chlorophenylamino)-hexylamino]-4-(pyridin-3-yl-amino)-cyclobut-3-ene-1,2-dione], the inhibition at 1 µM was more than 80% with A2780 [1]; more than 50% with A-549; more than 80% with HCT-116 [2]; more than 5% in the assay with MCF7 [3]; more than 50% with PC-3; more than 20% with SW-620 [4]. For the same compound, the IC50 is less than 100 nM with HCT-116 [5] (Homo sapiens, HCT-116) and less than 2000 nM in the assay on SW-620 [7] (Homo sapiens).
With `O=c1c(NCc2ccc(Oc3ccc(Cl)cc3)cc2)c(Nc2cccnc2)c1=O` [SQ-30, 3-[4-(4-Chlorophenoxy)-benzylamino]-4-(pyridin-3-yl-amino)-cyclobut-3-ene-1,2-dione], the inhibition at 1 µM in the assay with A2780 [1] was more than 80%; in the assay on A-549, more than 50%; in the assay on HCT-116 [2] it was more than 80%; in the assay on MCF7 [3] it was more than 80%; in the assay on PC-3, more than 20%; in the assay with SW-620 [4] it was more than 20%. Further, the IC50 with HCT-116 [5] (Homo sapiens, HCT-116) is less than 2000 nM; with MCF7 [6] (Homo sapiens), less than 500 nM; with SW-620 [7] (Homo sapiens), more than 10000 nM.
For `O=c1c(NCc2cccc(Oc3ccc(Cl)cc3)c2)c(Nc2cccnc2)c1=O` [SQ-33, 3-[3-(4-Chlorophenoxy)-benzylamino]-4-(pyridin-3-yl-amino)-cyclobut-3-ene-1,2-dione], the inhibition at 1 µM with A2780 [1] is more than 20%; with A-549, 0%; in the assay with HCT-116 [2], more than 50%; with MCF7 [3] it was 0%; with PC-3, 0%; with SW-620 [4], more than 5%.
